Test: recombinant barcode read abundance after kanamycin selection (control-corrected) (log10(CPM+1)); higher = more efficient recombination; sequences stand for … in AGTGCAGAGAAAATCGGCCAGTTTTCTCTGCCTGCAGTCCGCATGCCGT…AGATTTATGCAGCGGACTGCCTTTCTCCCAAAGTGATAAACCGGACAGTATCATGGACCGGTTTTCCCGGTAATCCGTATTTGCAAGGTTGGTTTCACT; site = the 11-nt target
Summary of the method: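 This pooled E. coli screen matched targets with IS621 bridge RNA target-binding loops. Plating was done in duplicate on chloramphenicol/ampicillin LB agar as a control and on chloramphenicol/ampicillin/kanamycin plus 0.1 mM IPTG. Recombination efficiency reflects barcode counts at recombinant junctions as counts per million, averaged and control-corrected. The figures are log10(CPM+1).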
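Note: IS621 recombinase and bridge RNA in Escherichia coli cells.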

In order of falling “recombinant barcode read abundance (log10)” value:
1. CAAGGTCCTTGGGTTCTAACCTGTTGCGG (site CAAGGTCCTCC)  2.68
2. GTGAGGACTTGGGTTCTAACCTGTTGCTG (site GTGAGGACTCA)  2.68
3. CCTTACACTTGGGTTCTAACCTGTTGCGG (site CCTTACACTCC)  2.53
4. ACCCTCCCTTGGGTTCTAACCTGTTGCTA (site ACCCTCCCTTA)  2.47
5. TTGGGAGCTTGGGTTCTAACCTGTTGCCT (site TTGGGAGCTAG)  2.26
6. ATTCACACTTGGGTTCTAACCTGTTGCGT (site ATTCACACTAC)  2.16
7. TAGGTACCTTGGGTTCTAACCTGTTGCAT (site TAGGTACCTAT)  1.98
8. GCAGGGACTTGGGTTCTAACCTGTTGCCT (site GCAGGGACTAG)  1.9
9. GTAGCACCTTGGGTTCTAACCTGTTGCTT (site GTAGCACCTAA)  1.72
10. CTAATCCCTTGGGTTCTAACCTGTTGCAT (site CTAATCCCTAT)  1.59
11. CTAGCGACTTGGGTTCTAACCTGTTGCAC (site CTAGCGACTGT)  1.15
12. CCTTACCCTTGGGTTCTAACCTGTTGCCT (site CCTTACCCTAG)  1.11
13. ATCGGAGCTTGGGTTCTAACCTGTTGCAG (site ATCGGAGCTCT)  0.953
14. GAGCAGACTTGGGTTCTAACCTGTTGCCT (site GAGCAGACTAG)  0.931
15. GGCTCCTCTTGGGTTCTAACCTGTTGCCT (site AGCTCCTCTAG)  0.849
16. TATTTAGCTTGGGTTCTAACCTGTTGCGG (site TATTTAGCTCC)  0.835
17. AGCGAGTCTTGGGTTCTAACCTGTTGCCT (site ACCGAGTCTAG)  0.817
18. GTATTTCCTTGGGTTCTAACCTGTTGCTT (site GTATTTCCTAA)  0.782
19. TCACCACCTTGGGTTCTAACCTGTTGCCT (site TCACCACCTAG)  0.744
20. GAAATGTCTTGGGTTCTAACCTGTTGCCT (site GTAATGTCTAG)  0.634
21. TCTGGGCCTTGGGTTCTAACCTGTTGCTT (site TCTGGGCCTTA)  0.525
22. CTATTCTCTTGGGTTCTAACCTGTTGCCT (site CTATTCACTAG)  0.472
23. TATCCGACTTGGGTTCTAACCTGTTGCCG (site TATCCGACTGG)  0.386
24. CAAAAGGCTTGGGTTCTAACCTGTTGCAG (site CAAAGGGCTCT)  0.386
25. GGCACTCCTTGGGTTCTAACCTGTTGCCT (site GGCACTCCTAG)  0.351
26. GAGCTTACTTGGGTTCTAACCTGTTGCCT (site GGGCTTACTAG)  0.299
27. GCCGAGTCTTGGGTTCTAACCTGTTGCAC (site GCCGAGTCTAG)  0.288
28. TACAGGACTTGGGTTCTAACCTGTTGCAG (site TAGAGGACTCT)  0.274
29. TCGGATGCTTGGGTTCTAACCTGTTGCAT (site GTTTCGACTTA)  0.272
30. CTCTACCCTTGGGTTCTAACCTGTTGCGT (site CTCTAACCTAC)  0.272
31. AGCCCTCCTTGGGTTCTAACCTGTTGCTA (site AGCCCTCCTGA)  0.222
32. AGGACTACTTGGGTTCTAACCTGTTGCCT (site AGAACTACTAG)  0.217
33. ACCTTGTCTTGGGTTCTAACCTGTTGCCT (site ACATTGTCTAG)  0.217
34. CCTCAGGCTTGGGTTCTAACCTGTTGCCT (site CCTCAGGCTTG)  0.204
35. CAAGGTCCTTGGGTTCTAACCTGTTGCGG (site GTTACCTCTAG)  0.194
36. GGTTGTTCTTGGGTTCTAACCTGTTGCCT (site GGTTGTTCTAG)  0.19
37. GTATCAGCTTGGGTTCTAACCTGTTGCCT (site GTATCAACTAG)  0.181
38. AGGCTGGCTTGGGTTCTAACCTGTTGCCT (site AGGCTGTCTAG)  0.166
39. GCGTGAGCTTGGGTTCTAACCTGTTGCCT (site GCCTGAGCTAG)  0.151
40. CTCGCAGCTTGGGTTCTAACCTGTTGCGG (site CTCGCGACTCC)  0.141
41. CTAAGGTCTTGGGTTCTAACCTGTTGCTT (site CTAAGGTCTAC)  0.132
42. CCTCGCACTTGGGTTCTAACCTGTTGCGA (site CCTAGCACTTC)  0.126
43. CGCTGACCTTGGGTTCTAACCTGTTGCTT (site CGCTGGCCTAA)  0.116
44. CGCCGTCCTTGGGTTCTAACCTGTTGCAT (site CGCCTTCCTAT)  0.099
45. CTAGACTCTTGGGTTCTAACCTGTTGCAC (site CTAGACTCTCT)  0.0956
46. TTCAAGACTTGGGTTCTAACCTGTTGCCT (site TTCAAGCCTAG)  0.0955
47. TAATCTCCTTGGGTTCTAACCTGTTGCGT (site GGTGGCTCTTG)  0.0934
48. TTGGTCGCTTGGGTTCTAACCTGTTGCCT (site TTGGGCGCTAG)  0.085
49. GCGAATCCTTGGGTTCTAACCTGTTGCCT (site GCGGATCCTAG)  0.069
50. CTCCGTACTTGGGTTCTAACCTGTTGCCG (site CTTCGTACTTG)  0.0671
51. CCTTACCCTTGGGTTCTAACCTGTTGCCT (site CCTTAGCCTAG)  0.0606
52. GGTAGGCCTTGGGTTCTAACCTGTTGCTT (site GGTAGGCCTAA)  0.0588
53. AGCAGAGCTTGGGTTCTAACCTGTTGCCG (site AGCAGAGCTCC)  0.058
54. GTAGTTCCTTGGGTTCTAACCTGTTGCCT (site GTCGTTCCTAG)  0.0557
55. TAGGGCCCTTGGGTTCTAACCTGTTGCCT (site GAGGGCCCTAG)  0.0503
56. ACCAAATCTTGGGTTCTAACCTGTTGCCG (site ACCAAATCTTA)  0.0479
57. TATAAGTCTTGGGTTCTAACCTGTTGCCT (site CGTAAGTCTAG)  0.0475
58. GGGAACGCTTGGGTTCTAACCTGTTGCCT (site GGGAATGCTAG)  0.0432
59. TCTATCCCTTGGGTTCTAACCTGTTGCCT (site TCGATCCCTAG)  0.0408
60. TTGAGGACTTGGGTTCTAACCTGTTGCCT (site ATGAGGACTAG)  0.0377
61. ATCTAGGCTTGGGTTCTAACCTGTTGCCG (site ATCTAGGCTCG)  0.0337
62. GTTTATACTTGGGTTCTAACCTGTTGCCT (site GTATATACTAG)  0.0265
63. TATTCTCCTTGGGTTCTAACCTGTTGCCT (site TATTCTCCTAT)  0.0206
64. TATTAATCTTGGGTTCTAACCTGTTGCCT (site CATTAGTCTAG)  0.0101
65. TGTAATTCTTGGGTTCTAACCTGTTGCCT (site TGTAATGCTAG)  0
66. CGTCAGACTTGGGTTCTAACCTGTTGCCT (site CGTAAGACTAG)  0
